From patent US8999976B2, “Modulators of cystic fibrosis transmembrane conductance regulator” (Vertex Pharmaceuticals Incorporated, priority 2008, dated 2015) come the findings set out here.

Some results are limits rather than exact numbers.

The assay has as its target T1, ΔF508-CFTR (Homo sapiens, UniProt P13569, DEL508-508).
T1 construct: expressed in transfected cells
The experiment in a line: Membrane potential optical assay for potentiators of ΔF508-CFTR (FLIPR III, voltage sensing dyes). Type of assay: cell-based. As to conditions: for Emax: NIH3T3, 100% efficacy is the maximum response obtained with 4-methyl-2-(5-phenyl-1H-pyrazol-3-yl)phenol, ΔF508 CFTR NIH 3T3 cells; for EC50: temperature-corrected ΔF508 CFTR NIH 3T3 cells, forskolin activation. The text has this: The assay utilizes fluorescent voltage sensing dyes to measure changes in membrane potential using a fluorescent plate reader (e.g., FLIPR III, Molecular Devices, Inc.) as a readout for increase in functional ΔF508-CFTR in NIH 3T3 cells.
To identify potentiators of ΔF508-CFTR, a double-addition HTS assay format was developed. This HTS assay utilizes fluorescent voltage sensing dyes to measure changes in membrane potential on the FLIPR III as a measurement for increase in gating (conductance) of ΔF508 CFTR in temperature-corrected ΔF508 CFTR NIH 3T3 cells.
Solutions • Bath Solution #1: (in mM) NaCl 160, KCl 4.5, CaCl2 2, MgCl2 1, HEPES 10, pH 7.4 with NaOH. • Chloride-Free Bath Solution: Chloride Salts in Bath Solution #1 are Substituted with Gluconate Salts.
NIH3T3 mouse fibroblasts stably expressing ΔF508-CFTR are used for optical measurements of membrane potential. The cells are maintained at 37° C. in 5% CO2 and 90% humidity in Dulbecco's modified Eagle's medium supplemented with 2 mM glutamine, 10% fetal bovine serum, 1×NEAA, β-ME, 1×pen/strep, and 25 mM HEPES in 175 cm^2 culture flasks. For all optical assays, the cells were seeded at ˜20,000/well in 384-well matrigel-coated plates and cultured for 2 hrs at 37° C. before culturing at 27° C. for 24 hrs. for the potentiator assay. For the correction assays, the cells are cultured at 27° C. or 37° C. with and without compounds for 16-24 hours. Electrophysiological Assays for assaying ΔF508-CFTR modulation properties of compounds.

T1 sequence (P13569 with tags, fused parts or gaps DEL508-508): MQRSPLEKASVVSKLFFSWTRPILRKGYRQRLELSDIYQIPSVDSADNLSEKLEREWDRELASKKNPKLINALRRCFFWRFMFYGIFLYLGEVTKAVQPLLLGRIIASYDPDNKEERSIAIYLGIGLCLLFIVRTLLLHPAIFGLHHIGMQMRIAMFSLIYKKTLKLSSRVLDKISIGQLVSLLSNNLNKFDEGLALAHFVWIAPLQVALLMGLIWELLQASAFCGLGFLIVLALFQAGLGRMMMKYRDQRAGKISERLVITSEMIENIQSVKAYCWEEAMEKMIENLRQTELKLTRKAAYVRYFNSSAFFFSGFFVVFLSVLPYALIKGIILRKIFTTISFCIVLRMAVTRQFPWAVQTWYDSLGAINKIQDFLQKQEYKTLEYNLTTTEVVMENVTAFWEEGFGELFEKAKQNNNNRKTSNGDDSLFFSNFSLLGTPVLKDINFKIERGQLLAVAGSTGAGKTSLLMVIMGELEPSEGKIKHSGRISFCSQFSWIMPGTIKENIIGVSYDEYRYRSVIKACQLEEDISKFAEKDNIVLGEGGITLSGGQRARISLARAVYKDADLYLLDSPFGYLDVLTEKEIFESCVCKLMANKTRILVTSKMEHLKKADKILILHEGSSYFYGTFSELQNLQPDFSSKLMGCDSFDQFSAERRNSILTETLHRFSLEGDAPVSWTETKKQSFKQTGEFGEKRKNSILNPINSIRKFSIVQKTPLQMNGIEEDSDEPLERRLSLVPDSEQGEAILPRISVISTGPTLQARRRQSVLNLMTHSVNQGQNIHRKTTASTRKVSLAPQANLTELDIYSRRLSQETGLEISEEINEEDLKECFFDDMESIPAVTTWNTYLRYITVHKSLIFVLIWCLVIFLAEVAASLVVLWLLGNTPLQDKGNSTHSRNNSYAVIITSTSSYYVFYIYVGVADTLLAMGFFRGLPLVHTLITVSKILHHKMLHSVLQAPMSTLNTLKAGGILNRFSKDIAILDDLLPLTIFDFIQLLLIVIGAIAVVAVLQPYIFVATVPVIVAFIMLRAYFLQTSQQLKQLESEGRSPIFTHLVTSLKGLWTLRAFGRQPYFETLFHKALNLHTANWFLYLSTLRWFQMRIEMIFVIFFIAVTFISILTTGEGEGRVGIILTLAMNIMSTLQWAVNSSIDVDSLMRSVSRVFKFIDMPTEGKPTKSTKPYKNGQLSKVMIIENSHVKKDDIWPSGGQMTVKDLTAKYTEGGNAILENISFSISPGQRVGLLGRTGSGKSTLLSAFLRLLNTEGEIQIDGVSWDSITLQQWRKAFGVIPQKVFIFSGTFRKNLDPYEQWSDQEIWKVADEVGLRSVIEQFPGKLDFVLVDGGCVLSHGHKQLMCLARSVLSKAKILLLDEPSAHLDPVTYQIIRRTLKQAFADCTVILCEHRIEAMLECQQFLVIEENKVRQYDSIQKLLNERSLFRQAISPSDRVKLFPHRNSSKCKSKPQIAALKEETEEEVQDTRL

Take `CN(C)CC#Cc1cc(C2CCCC2)c(O)cc1NC(=O)C1CNc2cc(C#N)ccc2O1` (stereo not drawn) [Compound 34]: the Emax (in general, the greatest response seen or fitted, relative to the assay's reference) lay in the range of 25 to 100% and the EC50 (usually the concentration needed to bring the measured effect to its halfway point) is less than 5 µM.

Consider `Cc1cc(CN2CCC(C)CC2)c(NC(=O)C2CNc3cc(OC(F)(F)F)ccc3O2)cc1O` (stereo not drawn) [Compound 126], for which the Emax was greater than 100% and the half-maximal effective concentration (EC50) was less than 5 µM.

Consider `Cc1ccc(NC(=O)C2CNc3cc(Cl)ccc3O2)c(C#CCN(C)C)c1` (stereo not drawn) [Compound 67], for which the maximal effect (Emax) lay within 25 to 100% and the EC50 was less than 5 µM.

On to `Cc1cccc2c1OC(C(=O)Nc1ccc(C(C)(C)C)c(O)c1)CN2` (stereo not drawn) [Compound 107], for which the Emax lay within 25 to 100% and the EC50 is less than 5 µM.

Take `CC(C)(C)c1ccc(NC(=O)C2CNc3ccc(C(F)(F)F)cc3O2)cc1O` (stereo not drawn) [Compound 70]: the Emax lay within 25 to 100% and the half-maximal effective concentration (EC50) is less than 5 µM.

For the molecule `Cc1cc(C#CC(=O)O)c(NC(=O)C2CNc3cc(OC(F)(F)F)ccc3O2)cc1O` (stereo not drawn) [Compound 96], the maximal response (Emax) was 25 to 100% and the EC50 is less than 5 µM.

Regarding `CN(C)CC#Cc1cc(C2CCCC2)c(O)cc1NC(=O)[C@@H]1CNc2ccccc2O1` [Compound 37], the Emax was 25 to 100% and the concentration for a half-maximal effect (EC50) is less than 5 µM.

As for `CCc1cc(CN2CCC(C)CC2)c(NC(=O)C2CNc3cc(OC(F)(F)F)ccc3O2)cc1O` (stereo not drawn) [Compound 118], the Emax was greater than 100% and the EC50 was less than 5 µM.

Regarding `Cc1ccc(NC(=O)C2CNc3cc(OC(F)(F)F)ccc3O2)c(C#CCN2CCC(F)(F)CC2)c1` (stereo not drawn) [Compound 9], the Emax was in the range of 25 to 100% and the EC50 was less than 5 µM.

Consider `CN1CCC(c2cc(C3CCCC3)c(O)cc2NC(=O)C2CNc3cc(C#N)ccc3O2)CC1` (stereo not drawn) [Compound 111, 6-cyano-N-(4-cyclopentyl-5-hydroxy-2-(1-methylpiperidin-4-yl)phenyl)-3,4-dihydro-2H-benzo[b][1,4]oxazine-2-carboxamide], for which the maximal response (Emax) was less than 25% and the EC50 lay in the range of 5 to 20 µM.

For the molecule `CC1(C(=O)Nc2cc(O)c(C3CCCC3)cc2C(F)(F)F)CNc2cc(OC(F)(F)F)ccc2O1` (stereo not drawn) [Compound 128], the maximum response (Emax) fell in the range of 25 to 100% and the EC50 was less than 5 µM.

As to `CC(C)(C)c1cc(C2CCCC2)c(O)cc1NC(=O)C1CNc2cc(C#N)ccc2O1` (stereo not drawn) [Compound 87], the Emax lay in the range of 25 to 100% and the EC50 was less than 5 µM.

For the molecule `Cc1cc(F)c(NC(=O)C2CNc3ccccc3O2)cc1O` (stereo not drawn) [Compound 55], the Emax lay in the range of 25 to 100% and the EC50 is less than 5 µM.

For `Cc1ccc(NC(=O)C2CNc3cc(OC(F)(F)F)ccc3O2)c(CCCN(C)C)c1` (stereo not drawn) [Compound 81], the Emax lay in the range of 25 to 100% and the EC50 is 5 to 20 µM.

As for `Cc1ccc(NC(=O)C2CNc3cc(OC(F)(F)F)ccc3O2)c(C#CCN2CCN(C)CC2)c1` (stereo not drawn) [Compound 62], the Emax was in the range of 25 to 100% and the EC50 was less than 5 µM.

As to `CC(C)(C)c1ccc(NC(=O)[C@@H]2CNc3ccc(F)cc3O2)cc1O` [Compound 83], the Emax was 25 to 100% and the EC50 was less than 5 µM.

With `CN(C)CC#Cc1cc(N2C3CCC2CC3)ccc1NC(=O)C1CNc2ccccc2O1` (stereo not drawn) [Compound 104], the Emax was 25 to 100% and the EC50 is 5 to 20 µM.

As to `Cc1ccc(NC(=O)C2CNc3cc(OC(F)(F)F)ccc3O2)c(C#CCN2CCNC(=O)C2)c1` (stereo not drawn) [Compound 63], the Emax fell in the range of 25 to 100% and the EC50 was less than 5 µM.

Consider `CN(C)CC#Cc1cc(C2CCCC2)ccc1NC(=O)C1CNc2cc(C#N)ccc2O1` (stereo not drawn) [Compound 110], for which the Emax lay in the range of 25 to 100% and the concentration giving a half-maximal response (EC50) is less than 5 µM.

For the molecule `O=C(Nc1cc(O)c(C2CCCC2)cc1C(F)(F)F)[C@H]1CNc2cc(OC(F)(F)F)ccc2O1` [Compound 32], the Emax was in the range of 25 to 100% and the EC50 was less than 5 µM.

With `Cc1cc(C2CCCC2)c(O)cc1NC(=O)[C@@H]1CNc2cc(C#N)ccc2O1` [Compound 25], the Emax is 25 to 100% and the EC50 is less than 5 µM.

Consider `CS(=O)(=O)c1cc(C2CCCC2)c(O)cc1NC(=O)C1CNc2cc(OC(F)(F)F)ccc2O1` (stereo not drawn) [Compound 105], for which the Emax was greater than 100% and the EC50 was 5 to 20 µM.

For the molecule `O=C(Nc1ccc2c(C(F)(F)F)c[nH]c2c1)C1CNc2ccccc2O1` (stereo not drawn) [Compound 30], the Emax is 25 to 100% and the 50% effective concentration (EC50) fell in the range of 5 to 20 µM.

Regarding `CC1(c2cc(F)c(NC(=O)C3CNc4cc(OC(F)(F)F)ccc4O3)cc2O)CCCCC1` (stereo not drawn) [Compound 108], the Emax was 25 to 100% and the EC50 was less than 5 µM.

On to `CN(C)CC#Cc1cc(N2C3CCC2CC3)ccc1NC(=O)C1CNc2cc(C#N)ccc2O1` (stereo not drawn) [Compound 43, N-(4-(7-azabicyclo[2.2.1]heptan-7-yl)-2-(3-(dimethylamino)prop-1-ynyl)phenyl)-6-cyano-3,4-dihydro-2H-benzo[b][1,4]oxazine-2-carboxamide], for which the EC50 is less than 5 µM.

`O=C(Nc1ccc(C2CC2)c(O)c1)C1CNc2ccccc2O1` (stereo not drawn) [Compound 27]: the maximum response (Emax) lay in the range of 25 to 100% and the EC50 is less than 5 µM.

For the molecule `Cc1cnc(NC(=O)C2CNc3cc(OC(F)(F)F)ccc3O2)c(C#CCN(C)C)c1` (stereo not drawn) [Compound 41], the Emax lay in the range of 25 to 100% and the EC50 was less than 5 µM.

In the case of `Cc1ccc(NC(=O)C2CNc3cc(OC(F)(F)F)ccc3O2)c(C#CCN(C)C)c1` (stereo not drawn) [Compound 26], the maximal effect (Emax) lay in the range of 25 to 100% and the EC50 is less than 5 µM.

Turning to `COc1ccc2c(c1)NCC(C(=O)Nc1ccc(C(C)(C)C)c(O)c1)O2` (stereo not drawn) [Compound 14], the Emax was less than 25% and the EC50 is 5 to 20 µM.

Regarding `CC(C)(C)c1cc(C(C)(C)C)c(NC(=O)C2CNc3cc(F)c(F)cc3O2)cc1O` (stereo not drawn) [Compound 8], the Emax fell in the range of 25 to 100% and the EC50 was less than 5 µM.

For the molecule `C[C@H]1CCCN1c1ccc(NC(=O)C2CNc3ccccc3O2)c(C(F)(F)F)c1` (stereo partly drawn) [Compound 89], the Emax lay within 25 to 100% and the EC50 is less than 5 µM.

`Cc1cc(C2CCCC2)c(O)cc1NC(=O)C1CNc2cc(C#N)ccc2O1` (stereo not drawn) [Compound 74]: the maximal response (Emax) fell in the range of 25 to 100% and the EC50 is less than 5 µM.

Regarding `CCOC(=O)CCc1cc(C2CCCC2)c(O)cc1NC(=O)C1CNc2cc(OC(F)(F)F)ccc2O1` (stereo not drawn) [Compound 4], the Emax is greater than 100% and the EC50 was less than 5 µM.

For the molecule `Cc1ccc(NC(=O)C2CNc3cc(OC(F)(F)F)ccc3O2)c(C#CCN(C)C)n1` (stereo not drawn) [Compound 91], the Emax lay within 25 to 100% and the EC50 is less than 5 µM.

On to `CN1CCN(Cc2cc(C3CCCC3)c(O)cc2NC(=O)C2CNc3ccccc3O2)CC1` (stereo not drawn) [Compound 52, N-(4-cyclopentyl-5-hydroxy-2-((4-methylpiperazin-1-yl)methyl)phenyl)-3,4-dihydro-2H-benzo[b][1,4]oxazine-2-carboxamide], for which the Emax was 25 to 100% and the EC50 is less than 5 µM.

Consider `Cc1cc(C2CCCC2)c(O)cc1NC(=O)C1CNc2cc(S(C)(=O)=O)ccc2O1` (stereo not drawn) [Compound 72], for which the maximum response (Emax) is 25 to 100% and the EC50 is less than 5 µM.

With `N#Cc1ccc2c(c1)NCC(C(=O)Nc1cc(O)c(C3CCCC3)cc1CN1CCNCC1)O2` (stereo not drawn) [Compound 51, 6-cyano-N-(4-cyclopentyl-5-hydroxy-2-(piperazin-1-ylmethyl)phenyl)-3,4-dihydro-2H-benzo[b][1,4]oxazine-2-carboxamide], the Emax lay within 25 to 100% and the EC50 fell in the range of 5 to 20 µM.

As to `CCc1ccc(NC(=O)C2CNc3cc(OC(F)(F)F)ccc3O2)c(C#CCN(C)C)c1` (stereo not drawn) [Compound 44], the Emax is greater than 100% and the EC50 was less than 5 µM.

In the case of `CC(C)(C)c1ccc(NC(=O)C2CNc3cccc(C(F)(F)F)c3O2)cc1O` (stereo not drawn) [Compound 85], the Emax lay within 25 to 100% and the EC50 is less than 5 µM.

For the molecule `Cc1ccc(NC(=O)C2CNc3cc(OC(F)(F)F)ccc3O2)c(CCN2CC[C@@H](F)C2)c1` (stereo partly drawn) [Compound 119], the Emax was in the range of 25 to 100% and the 50% effective concentration (EC50) was 5 to 20 µM.

Consider `CC(C)(C)c1cc(C2CCCC2)c(O)cc1NC(=O)C1CNc2cc(S(C)(=O)=O)ccc2O1` (stereo not drawn) [Compound 66], for which the maximal response (Emax) lay in the range of 25 to 100% and the EC50 was less than 5 µM.

Turning to `CC(C)(C)c1ccc(NC(=O)C2CNc3ccc(F)cc3O2)cc1O` (stereo not drawn) [Compound 35], the maximal response (Emax) was in the range of 25 to 100% and the EC50 is less than 5 µM.

Regarding `CNCC#Cc1cc(C2CCCC2)c(O)cc1NC(=O)C1CNc2cc(OC(F)(F)F)ccc2O1` (stereo not drawn) [Compound 98, N-(4-cyclopentyl-5-hydroxy-2-(3-(methylamino)prop-1-ynyl)phenyl)-6-(trifluoromethoxy)-3,4-dihydro-2H-benzo[b][1,4]oxazine-2-carboxamide], the maximal response (Emax) is 25 to 100% and the EC50 is less than 5 µM.

As to `CC(C)(C)c1ccc(NC(=O)C2CNc3ccccc3S2(=O)=O)cc1O` (stereo not drawn) [Compound 121, N-(4-tert-butyl-3-hydroxy-phenyl)-1,1-dioxo-3,4-dihydro-2H-benzo[b][1,4]thiazine-2-carboxamide], the Emax was 25 to 100% and the EC50 was less than 5 µM.
